Results on 1 molecule are retold here after ChEMBL document CHEMBL1151312, “A concise conversion of (-)-sclareol into (+)-coronarin E and (-)-7-epi-coronarin A” (J Nat Prod, 1998).

This experiment has as its system V79. As to the kind of experiment: Cytotoxicity against Chinese hamster V79 cells. It is filed as cell-based. The conditions noted are these: Cricetulus griseus.

In brackets after ≈: the same amount, converted by molar mass.

In general, IC50 refers to the point on the concentration scale where inhibition reaches its midpoint. The molecule `C=C1[C@@H](O)C[C@H]2C(C)(C)CCC[C@]2(C)[C@H]1/C=C/c1ccoc1` [CORONARIN A] showed an IC50 of 1.65 µg/mL (≈ 5.49 µM).
